In US20040186022A1, “Enhanced herbicides” (priority 1999, published 2004):
Several values for one entry are separate records, joined by “and”; a condition that tells them apart may be missing. Equal values may be shown once.

Columns and labels:
[1] = tested on: young potato plants; assay: Effects of desiccants and desiccant combinations with other compounds on young potato plants; type: in vivo; design: All evaluations (total score): scale not given here
Source text: (§1) The herbicides were applied in the “spray to drip” amount or at a calibrated 20-60 gallons/acre. “Spray to drip” is an uncalibrated application of fluid to foliage, where sufficient spray volume is used to sufficiently saturate the foliage surface until excess fluid begins to drip from the foliage.

[2] = tested on: snapbean and potato plants; assay: Enhancement of Scythe's herbicidal activity by selected compounds; type: in vivo; design: Totals, all evaluations, Beans / Totals, all evaluations, Potatoes / Totals, all evaluations, All / evaluation, 2 days, beans / evaluation, 2 days, potatoes / evaluation, 11 days, beans / evaluation, 11 days, potatoes / evaluation, 15 days, beans / evaluation, 15 days, potatoes: scale not given here
Source text: as §1

[3] = tested on: navy dry beans (navy Vista); assay: Synergistic interactions of succinic acid and di-ammonium succinate with herbicidal compounds, navy dry beans; type: in vivo, dry bean (navy); details: for Injury rating, average per plot: scale 1-5
Source text: as §1

[4] = tested on: black beans (dry bean variety T39); assay: Synergistic interactions of succinic acid and di-ammonium succinate with other herbicidal compounds, dry beans (black); type: in vivo; details: for Injury rating, average per plot: scale 1-5
Source text: as §1

[5] = tested on: 60 G/a: velvetleaf, black nightshade, redroot pigweed, foxtail and snapbeans; spray to drip: black nightshade, velvetleaf, foxtail and snapbeans; assay: Efficacy of 1.5% succinic acid with oleic, caprylic or pelargonic acid in an emulsification system (Emsorb 6900); type: in vivo; design: Injury rating, total score for 2 evaluation, Spray to drip / Injury rating, total score for 2 evaluation, Total Rating: scale not given here
Source text: as §1

[6] = tested on: plants; assay: Herbicidal activity: comparison of caprylic, pelargonic and an equimolar mixture of caprylic and pelargonic acids; type: in vivo; details: for Injury ratings based on 2 independent evaluations, 40 G/acre: 40 G/acre: chickweed, lambsquarter and green foxtail; for Injury ratings based on 2 independent evaluations, 40 G/acre / Injury ratings based on 2 independent evaluations, 60 G/acre: redroot pigweed, each pot rated 1 to 5; for Injury ratings based on 2 independent evaluations, 60 G/acre: 60 G/acre: chickweed, lambsquarter, green foxtail, crabgrass and wheat; for Average rating per pot: rating 1 to 5, 5 = complete desiccation of all plants
Source text: The herbicides were applied in the “spray to drip” amount or at a calibrated 20-60 gallons/acre. “Spray to drip” is an uncalibrated application of fluid to foliage, where sufficient spray volume is used to sufficiently saturate the foliage surface until excess fluid begins to drip from the foliage. In general, about 5 to 200 gallons/acre, preferably 20-100 gallons/acre can be effective.

[7] = tested on: soybeans; assay: Synergistic relationships between succinic acid and caprylic acid at different application rates, testing soybeans; type: in vivo; details: 2 days after a single foliar application, average of 2 sites, soybean Stine 2250; for Overall Effect: 5 equals profound desiccation
Source text: as §1

[8] = Measurement of pH values for test desiccants (Example 55); type: physicochemical
[9] = tested on: Dry Beans; assay: Synergistic relationship between succinic or citric acid and caprylic acid, testing dry beans; type: in vivo; details: 3 days after single foliar application, dry bean Vista; for Green Foliage, Overall Effect / Yellow Foliage, Overall Effect: 5 equals profound desiccation
Source text: as §1

[10] = tested on: soybeans; assay: Synergy comparisons of various organic acids with caprylic acid, testing soybeans; type: in vivo; details: 3 days after a single foliar application, average of 2 sites, soybean Stine 2250; for Overall Effect: 5 equals profound desiccation
Source text: as §1

[11] = tested on: chickweed, redtop, velvetleaf, crabgrass and green foxtail; assay: Enhancement of herbicidal activity of caprylic/capric acids (c/c) using selected compounds at equimolar amounts; type: in vivo; design: Relative injury ratings, Day #4 / Relative injury ratings, Day #5: scale not given here; details: for Relative injury ratings, Day #2: Day 2 after treatment, 40 G/acre, 8 pots, rating 1-5 per pot, […] Emsorb 6900, […] mineral oil; for Relative injury ratings, Day #4: Day 4 after treatment; for Relative injury ratings, Day #5: Day 5 after treatment; for Average rating per pot: scale 1-5
Source text: as §1

[12] = Day 1, one application at 40 G/acre, treatments 1-4, 9-11 in Emsorb 6900/mineral oil/Hasten, 5-8, 12-14 in 0.3% Sylgard 309
[13] = Day 2, one application at 40 G/acre, treatments 1-4, 9-11 in Emsorb 6900/mineral oil/Hasten, 5-8, 12-14 in 0.3% Sylgard 309

With `CCCCCCCC(=O)O` [1% caprylic] the “Injury ratings of treated plants, day 1” value ([1]; 1 day after application, 6 = complete desiccation) was 2, the “Injury ratings of treated plants, day 3” value ([1]; 3 days after application, 6 = complete desiccation) was 3 and the “Injury ratings of treated plants, day 6” value ([1]; 6 days after application, 6 = complete desiccation) was 2. For the same compound, the “Injury ratings of treated plants, day 17” value ([1]; 17 days after application, 6 = complete desiccation) was 2.5, the “Injury ratings of treated plants, day 22” value ([1]; 22 days after application, 6 = complete desiccation) was 3 and the “Injury ratings of treated plants, day 27” value ([1]; 27 days after application, 6 = complete desiccation) was 3. For the same compound, the “Injury ratings of treated plants, […]” value ([1]; […] after application, 6 = complete desiccation) was 2 and the “All evaluations (total score)” value ([1]; total of all evaluation times) was 17.5.

With `O=C([O-])c1ccccc1O.[Na+]` [2% NaSalicylate] the “Totals, all evaluations, All” value ([2]; beans + potatoes) was 7.5, the “evaluation, 2 days, potatoes” value ([2]; potato, 2 days after application, 40 gallons/acre) was 1 and the “evaluation, 11 days, potatoes” value ([2]; potato, 11 days after application, 40 gallons/acre) was 1. The “evaluation, 15 days, potatoes” value ([2]; potato, 15 days after application, 40 gallons/acre) was 1, the “evaluation, […], potatoes” value ([2]; potato, […] after application, 40 gallons/acre, 6 = complete desiccation) was 0 and the “Totals, all evaluations, Potatoes” value ([2]; potato, total of 4 evaluation times) was 3. For the same compound, the “evaluation, 2 days, beans” value ([2]; snapbean, 2 days after application, 40 gallons/acre) was 1, the “evaluation, 11 days, beans” value ([2]; snapbean, 11 days after application, 40 gallons/acre) was 1.5 and the “evaluation, 15 days, beans” value ([2]; snapbean, 15 days after application, 40 gallons/acre) was 1. The “evaluation, […], beans” value ([2]; snapbean, […] after application, 40 gallons/acre, 6 = complete desiccation) was 1 and the “Totals, all evaluations, Beans” value ([2]; snapbean, total of 4 evaluation times) was 4.5.

In the case of `N.N.O=C(O)CCC(=O)O` [2.52% di-ammonium succinate, di-ammonium succinate], the “Injury rating, average per plot” value [3, 12] is reported as 0, the “Injury rating, average per plot” value ([3]; Day 2) is reported as 0 and the “Injury rating, average per plot” value ([3]; Day 3) is reported as 0. The “Injury rating, average per plot” value ([3]; Day 4) was 0, the “% desiccation (Day 12), foliage” value [3] was 0% and the “% desiccation (Day 12), pods” value [3] was 0%. For the same compound, the “% desiccation (Day 12), vines” value [3] was 0%, the “Injury rating, average per plot” value ([3]; Day 12) was 0 and the “Injury rating, average per plot” value [4, 13] was 0. The “% desiccation (Day 12), foliage” value [4] was 0%, the “% desiccation (Day 12), pods” value [4] was 0% and the “% desiccation (Day 12), vines” value [4] was 0%. The “Injury rating, average per plot” value ([4]; Day 12) was 0.

For `CCCCCCCC/C=C\CCCCCCCC(=O)O` [3% oleic, oleic acid], the “Injury rating, total score for 2 evaluation, Total Rating” value ([5]; 60 G/a plus spray to drip) was 33.6, the “Injury rating, total score for 2 evaluation, 60 G/a” value ([5]; 60 G/a, rating 1-5 per pot, 1% Emsorb, 0.3% Hasten) was 24.2 and the “Average rating per pot” value ([5]; scale 1-5) was 1.2. The “Injury rating, total score for 2 evaluation, Spray to drip” value ([5]; spray to drip) was 9.4.

In the case of `O=C([O-])c1ccccc1O.[Na+]` [3% sodium salicylate, sodium salicylate], the “Injury rating, average per plot” value [3, 12] is reported as 3.8, the “Injury rating, average per plot” value ([3]; Day 2) is reported as 4.13 and the “Injury rating, average per plot” value ([3]; Day 3) is reported as 4.57. For the same compound, the “Injury rating, average per plot” value ([3]; Day 4) was 4.5, the “% desiccation (Day 12), foliage” value [3] was 92% and the “% desiccation (Day 12), pods” value [3] was 90%. For the same compound, the “% desiccation (Day 12), vines” value [3] was 70%, the “Injury rating, average per plot” value ([3]; Day 12) was 4.7 and the “Injury rating, average per plot” value [4, 13] was 4. The “% desiccation (Day 12), foliage” value [4] was 95%, the “% desiccation (Day 12), pods” value [4] was 90% and the “% desiccation (Day 12), vines” value [4] was 90%. The “Injury rating, average per plot” value ([4]; Day 12) was 4.78.

With `CCCCCCCCC(=O)O` [3.375% pelargonic] the “Injury ratings based on 2 independent evaluations, 40 G/acre” value [6] was 43, the “Injury ratings based on 2 independent evaluations, 60 G/acre” value [6] was 53.6 and the “Average rating per pot” value [6] was 4.41.

For `CCCCCCCCC(=O)O` [4.5% pelargonic], the “Injury ratings based on 2 independent evaluations, 40 G/acre” value [6] was 45.1, the “Injury ratings based on 2 independent evaluations, 60 G/acre” value [6] was 53.9 and the “Average rating per pot” value [6] was 4.51.

With `CCCCCCCC(=O)O` [Caprylic Acid (0.2%)] the “Foliage Affected (%)” value [7] was 1.25% and the “Overall Effect” value [7] was 0.5.

With `CCCCCCCC(=O)O` [Caprylic Acid (0.5%)] the “pH Value” [8] was 3.55 and 3.30, the “Green Foliage, Foliage Affected (%)” value [9] was 10-15% and the “Yellow Foliage, Foliage Affected (%)” value [9] was 70%. For the same compound, the “Green Foliage, Overall Effect” value [9] was 2.5, the “Yellow Foliage, Overall Effect” value [9] was 2 and the “Foliage Affected (%)” value [7] was 9%. For the same compound, the “Overall Effect” value [7] was 2.25, the “Foliage Affected (%)” value [10] was 5% and the “Overall Effect” value [10] was 1.5.

For `O=C(O)CC(O)(CC(=O)O)C(=O)O` [Citric Acid (0.5%)], the “pH Value” [8] was 1.64, the “Green Foliage, Foliage Affected (%)” value [9] was 0% and the “Yellow Foliage, Foliage Affected (%)” value [9] was 0%. The “Green Foliage, Overall Effect” value [9] was 0 and the “Yellow Foliage, Overall Effect” value [9] was 0.

With `O=C(O)CC(O)(CC(=O)O)C(=O)O` [CitricAcid (0.5%)] the “Foliage Affected (%)” value [10] was 0% and the “Overall Effect” value [10] was 0.

In the case of `C[C@H](O)C(=O)O` [L-Lactic Acid (0.5%)], the “pH Value” [8] is reported as 1.93, the “Foliage Affected (%)” value [10] is reported as 0% and the “Overall Effect” value [10] is reported as 0.

For `C[C@H](O)C(=O)O` [L-Lactic Acid (1.0%)], the “Foliage Affected (%)” value [7] was 1.25% and the “Overall Effect” value [7] was 0.5.

In the case of `O=C(O)CC(O)C(=O)O` [L-Malic Acid (0.5%)], the “pH Value” [8] is reported as 1.69, the “Foliage Affected (%)” value [10] is reported as 0% and the “Overall Effect” value [10] is reported as 0.

For `O=C([O-])c1ccccc1O.[Na+]` [Na Salicylate (0.5%)], the “Green Foliage, Foliage Affected (%)” value [9] was 5-10%, the “Yellow Foliage, Foliage Affected (%)” value [9] was 30% and the “Green Foliage, Overall Effect” value [9] was 2. For the same compound, the “Yellow Foliage, Overall Effect” value [9] was 1.

For `O=C([O-])c1ccccc1O.[Na+]` [Na Salicylate (2%)], the “Green Foliage, Foliage Affected (%)” value [9] was 90%, the “Yellow Foliage, Foliage Affected (%)” value [9] was over 90% and the “Green Foliage, Overall Effect” value [9] was 5. The “Yellow Foliage, Overall Effect” value [9] was 5.

With `O=C(O)CCC(=O)O` [Succinic Acid (0.5%)] the “pH Value” [8] was 1.94, the “Green Foliage, Foliage Affected (%)” value [9] was 0% and the “Yellow Foliage, Foliage Affected (%)” value [9] was 0%. The “Green Foliage, Overall Effect” value [9] was 0, the “Yellow Foliage, Overall Effect” value [9] was 0 and the “Foliage Affected (%)” value [10] was 0%. The “Overall Effect” value [10] was 0.

In the case of `N.N.O=S(=O)(O)O` [ammonium sulfate (1.12%), ammonium sulfate], the “Relative injury ratings, Day #2” value [11] is reported as 0, the “Relative injury ratings, Day #4” value [11] is reported as 0 and the “Relative injury ratings, Day #5” value [11] is reported as 0. The “Average rating per pot” value [11] was 0.

In the case of `N.N.O=C(O)C(O)C(O)C(=O)O` (stereo not drawn) [ammonium tartrate (1.42%), ammonium tartrate], the “Relative injury ratings, Day #2” value [11] is reported as 0, the “Relative injury ratings, Day #4” value [11] is reported as 0 and the “Relative injury ratings, Day #5” value [11] is reported as 0. For the same compound, the “Average rating per pot” value [11] was 0.

In the case of `N.N.O=C(O)CCC(=O)O` [di-ammonium succinate (1.26%), di-ammonium succinate], the “Relative injury ratings, Day #2” value [11] is reported as 0, the “Relative injury ratings, Day #4” value [11] is reported as 0 and the “Relative injury ratings, Day #5” value [11] is reported as 0. For the same compound, the “Average rating per pot” value [11] was 0.
